Data taken from patent publication US11324728B2, “Dosing regimens for the treatment of fungal infections” (Seren Pharmaceuticals Inc., priority 2017, dated 2022).
Values joined by “and” are separate entries in the source; they are usually repeats but may differ in a detail not shown here. Equal values may be shown once.

Experiments:
[1] = Safety: adverse events and laboratory tests; type: in vivo, human
Procedure: (§1) A Phase II clinical pharmacology study was conducted in subjects with onychomycosis of the toenail. The study investigated the pharmacokinetics, efficacy and safety of three different dosing regimens of fosravuconazole. […] The three treatment groups were as follows: • a.
The safety endpoints were: (1) adverse events (AEs); (2) adverse reactions; and (3) laboratory tests.

Trichophyton species = experiment: Overall clinical evaluation by identified species; type: in vivo; conditions: 200 mg, Week 48
Procedure: as §1

fungal elements = experiment: Mycological cure: search for fungal elements by direct microscopy; type: in vivo, human; conditions: PPS
Procedure: as §1
(§2) The efficacy endpoints were: (1) overall clinical efficacy; (2) changes over time in efficacy; (3) confirmation of elements of dermatophytes by direct microscopy; and (4) results of identification of dermatophytes by the polymerase chain reaction (PCR) method.
At screening, fungal elements were found by direct microscopy in all treatment groups.

[2] = test system: onychomycosis of the toenail; experiment: Phase II clinical study: overall clinical efficacy; type: in vivo, human
Procedure: as §1, §2
Overall clinical efficacy (cure rate and response rate) at Weeks 48 and 24 after the study treatment initiation for the efficacy analysis population (per protocol set, PPS) are presented in Tables 1 and 2 below. Overall clinical efficacy (cure rate and response rate) at Weeks 48 and 24 after the study treatment initiation for the full analysis set (FAS) are presented in Tables 3 and 4 below.

[3] = 100 mg once daily, Week 24, FAS
[4] = 100 mg once daily, Week 24, PPS
[5] = 100 mg once daily, Week 48, FAS
[6] = 100 mg once daily, Week 48, PPS
[7] = 200 mg pulse treatment, Week 24, FAS
[8] = 200 mg pulse treatment, Week 24, PPS
[9] = 200 mg pulse treatment, Week 48, FAS
[10] = 200 mg pulse treatment, Week 48, PPS
[11] = 400 mg pulse treatment, Week 24, FAS
[12] = 400 mg pulse treatment, Week 24, PPS
[13] = 400 mg pulse treatment, Week 48, FAS
[14] = 400 mg pulse treatment, Week 48, PPS

C[C@@H](c1nc(-c2ccc(C#N)cc2)cs1)[C@@](Cn1cncn1)(OCOP(=O)(O)O)c1ccc(F)cc1F [fosravuconazole, 4-[2-[(1R,2R)-2-(2,4-difluorophenyl)-1-methyl-2-[(phosphonooxy)methoxy]-3-(1H-1,2,4-triazol-1-yl)propyl]-4-thiazolyl]benzo-nitrile]
AEs resulting in discontinuation of the study treatment ([1]; 100 mg (once daily dose) group): 1 subject
AST or ALT elevated to Grade 2 after the start of study treatment ([1]; 100 mg (once daily dose) group): 2 subjects
Moderate AEs ([1]; 100 mg (once daily dose) group): 3 subjects
incidence of AEs ([1]; 100 mg (once daily dose) group): 89.7%
new AE derived from fungal infection ([1]; 100 mg (once daily dose) group): no new AE derived from fungal infection
AST or ALT elevated to Grade 2 after the start of study treatment ([1]; 200 mg (pulse treatment) group): 1 subject
Moderate AEs ([1]; 200 mg (pulse treatment) group): 12 subjects
incidence of AEs ([1]; 200 mg (pulse treatment) group): 64.5%
AEs resulting in discontinuation of the study treatment ([1]; 400 mg (pulse treatment) group): 4 subjects
AST or ALT elevated to Grade 2 after the start of study treatment ([1]; 400 mg (pulse treatment) group): 1 subject
Moderate AEs ([1]; 400 mg (pulse treatment) group): 12 subjects
incidence of AEs ([1]; 400 mg (pulse treatment) group): 85.3%
tinea pedis ([1]; 400 mg (pulse treatment) group): 2 subjects
tolerability ([1]; all dosing groups): well-tolerated
death or other serious AEs ([1]; any of the treatment groups): No death or other serious AEs occurred
AST or ALT elevated to Grade 2 after the start of study treatment ([1]; in total, all groups): 4 subjects
Cure rate and 95% CI (Trichophyton species): 0.0 %
Cured (Trichophyton species): 0
Failed (Trichophyton species): 0
Improved (Trichophyton species): 0
Markedly improved (Trichophyton species): 1
Slightly improved (Trichophyton species): 0
Absence of fungal elements by direct microscopy (%) (fungal elements; 100 mg group, At screening): (0.0) %
Absence of fungal elements by direct microscopy, subjects (fungal elements; 100 mg group, At screening): 0
Presence of fungal elements by direct microscopy (%) (fungal elements; 100 mg group, At screening): (100.0) %
Presence of fungal elements by direct microscopy, subjects (fungal elements; 100 mg group, At screening): 28
Absence of fungal elements by direct microscopy (%) (fungal elements; 100 mg group, Week 12): (33.3) %
Absence of fungal elements by direct microscopy, subjects (fungal elements; 100 mg group, Week 12): 9
Presence of fungal elements by direct microscopy (%) (fungal elements; 100 mg group, Week 12): (16.7) %
Presence of fungal elements by direct microscopy, subjects (fungal elements; 100 mg group, Week 12): 18
Absence of fungal elements by direct microscopy (%) (fungal elements; 100 mg group, Week 24): (48.0) %
Absence of fungal elements by direct microscopy, subjects (fungal elements; 100 mg group, Week 24): 12
Presence of fungal elements by direct microscopy (%) (fungal elements; 100 mg group, Week 24): (52.0) %
Presence of fungal elements by direct microscopy, subjects (fungal elements; 100 mg group, Week 24): 13
Absence of fungal elements by direct microscopy, subjects (fungal elements; 100 mg group, Week 48): 18
Presence of fungal elements by direct microscopy (%) (fungal elements; 100 mg group, Week 48): (28.0) %
Presence of fungal elements by direct microscopy, subjects (fungal elements; 100 mg group, Week 48): 7
Absence of fungal elements by direct microscopy (%) (fungal elements; 200 mg group, At screening): (0.0) %
Absence of fungal elements by direct microscopy, subjects (fungal elements; 200 mg group, At screening): 0
Presence of fungal elements by direct microscopy (%) (fungal elements; 200 mg group, At screening): (100.0) %
Presence of fungal elements by direct microscopy, subjects (fungal elements; 200 mg group, At screening): 27
Absence of fungal elements by direct microscopy (%) (fungal elements; 200 mg group, Week 12): (50.0) %
Absence of fungal elements by direct microscopy, subjects (fungal elements; 200 mg group, Week 12): 13
Presence of fungal elements by direct microscopy (%) (fungal elements; 200 mg group, Week 12): (50.0) %
Presence of fungal elements by direct microscopy, subjects (fungal elements; 200 mg group, Week 12): 13
Absence of fungal elements by direct microscopy (%) (fungal elements; 200 mg group, Week 24): (48.0) %
Absence of fungal elements by direct microscopy, subjects (fungal elements; 200 mg group, Week 24): 12
Presence of fungal elements by direct microscopy (%) (fungal elements; 200 mg group, Week 24): (52.0) %
Presence of fungal elements by direct microscopy, subjects (fungal elements; 200 mg group, Week 24): 13
Absence of fungal elements by direct microscopy, subjects (fungal elements; 200 mg group, Week 48): 8
Presence of fungal elements by direct microscopy (%) (fungal elements; 200 mg group, Week 48): (63.6) %
Presence of fungal elements by direct microscopy, subjects (fungal elements; 200 mg group, Week 48): 14
Absence of fungal elements by direct microscopy (%) (fungal elements; 400 mg group, At screening): (0.0) %
Absence of fungal elements by direct microscopy, subjects (fungal elements; 400 mg group, At screening): 0
Presence of fungal elements by direct microscopy (%) (fungal elements; 400 mg group, At screening): (100.0) %
Presence of fungal elements by direct microscopy, subjects (fungal elements; 400 mg group, At screening): 33
Absence of fungal elements by direct microscopy (%) (fungal elements; 400 mg group, Week 12): (19.4) %
Absence of fungal elements by direct microscopy, subjects (fungal elements; 400 mg group, Week 12): 6
Presence of fungal elements by direct microscopy (%) (fungal elements; 400 mg group, Week 12): (80.6) %
Presence of fungal elements by direct microscopy, subjects (fungal elements; 400 mg group, Week 12): 25
Absence of fungal elements by direct microscopy (%) (fungal elements; 400 mg group, Week 24): (45.2) %
Absence of fungal elements by direct microscopy, subjects (fungal elements; 400 mg group, Week 24): 14
Presence of fungal elements by direct microscopy (%) (fungal elements; 400 mg group, Week 24): (54.8) %
Presence of fungal elements by direct microscopy, subjects (fungal elements; 400 mg group, Week 24): 17
Absence of fungal elements by direct microscopy, subjects (fungal elements; 400 mg group, Week 48): 17
Presence of fungal elements by direct microscopy (%) (fungal elements; 400 mg group, Week 48): (37.0) %
Presence of fungal elements by direct microscopy, subjects (fungal elements; 400 mg group, Week 48): 10
Cure rate and 95% CI [2, 3]: 0.0 (0.0, 13.2) %
Cured [2, 3]: 0
Failed [2, 3]: 0
Improved [2, 3]: 6
Markedly improved [2, 3]: 20
Response rate and 95% CI [2, 3]: 76.9 (56.4, 91.0) %
Slightly improved [2, 3]: 0
Cure rate and 95% CI [2, 4]: 0.0 (0.0, 13.7) %
Cured [2, 4]: 0
Failed [2, 4]: 0
Improved [2, 4]: 6
Markedly improved [2, 4]: 19
Response rate and 95% CI [2, 4]: 76.0 (54.9, 90.6) %
Slightly improved [2, 4]: 0
Cure rate and 95% CI [2, 5]: 38.5 (20.3, 59.4) %
Cured [2, 5]: 10
Failed [2, 5]: 0
Improved [2, 5]: 1
Markedly improved [2, 5]: 15
Response rate and 95% CI [2, 5]: 96.2 (80.4, 99.9) %
Slightly improved [2, 5]: 0
Cure rate and 95% CI [2, 6]: 40.0% and 40.0 (21.2, 61.3) %
Cured [2, 6]: 10
Failed [2, 6]: 0
Improved [2, 6]: 1
Markedly improved [2, 6]: 14
Response rate and 95% CI [2, 6]: 96.0% and 96.0 (79.7, 99.8) %
Slightly improved [2, 6]: 0
Cure rate and 95% CI [2, 7]: 3.6 (0.1, 18.3) %
Cured [2, 7]: 1
Failed [2, 7]: 0
Improved [2, 7]: 10
Markedly improved [2, 7]: 16
Response rate and 95% CI [2, 7]: 60.7 (40.6, 78.4) %
Slightly improved [2, 7]: 1
Cure rate and 95% CI [2, 8]: 4.0 (0.2, 20.3) %
Cured [2, 8]: 1
Failed [2, 8]: 0
Improved [2, 8]: 9
Markedly improved [2, 8]: 14
Response rate and 95% CI [2, 8]: 60.0 (38.7, 78.8) %
Slightly improved [2, 8]: 1
Cure rate and 95% CI [2, 9]: 32.0 (15.0, 53.5) %
Cured [2, 9]: 8
Failed [2, 9]: 0
Improved [2, 9]: 4
Markedly improved [2, 9]: 13
Response rate and 95% CI [2, 9]: 84.0 (64.0, 95.4) %
Slightly improved [2, 9]: 0
Cure rate and 95% CI [2, 10]: 27.3% and 27.3 (10.8, 50.2) %
Cured [2, 10]: 6
Failed [2, 10]: 0
Improved [2, 10]: 4
Markedly improved [2, 10]: 12
Response rate and 95% CI [2, 10]: 81.8% and 81.8 (59.8, 94.8) %
Slightly improved [2, 10]: 0
Cure rate and 95% CI [2, 11]: 0.0 (0.0, 11.2) %
Cured [2, 11]: 0
Failed [2, 11]: 0
Improved [2, 11]: 11
Markedly improved [2, 11]: 17
Response rate and 95% CI [2, 11]: 54.8 (36.1, 72.6) %
Slightly improved [2, 11]: 3
Cure rate and 95% CI [2, 12]: 0.0 (0.0, 11.2) %
Cured [2, 12]: 0
Failed [2, 12]: 0
Improved [2, 12]: 11
Markedly improved [2, 12]: 17
Response rate and 95% CI [2, 12]: 54.8 (36.1, 72.6) %
Slightly improved [2, 12]: 3
Cure rate and 95% CI [2, 13]: 40.7 (22.4, 61.2) %
Cured [2, 13]: 11
Failed [2, 13]: 0
Improved [2, 13]: 4
Markedly improved [2, 13]: 12
Response rate and 95% CI [2, 13]: 85.2 (66.3, 95.8) %
Slightly improved [2, 13]: 0
Cure rate and 95% CI [2, 14]: 40.7% and 40.7 (22.4, 61.2) %
Cured [2, 14]: 11
Failed [2, 14]: 0
Improved [2, 14]: 4
Markedly improved [2, 14]: 12
Response rate and 95% CI [2, 14]: 85.2% and 85.2 (66.3, 95.8) %
Slightly improved [2, 14]: 0
